This note sets out measurements from US12616713B2, “Methods for enhancing vascular density” (priority 2016, dated 2026).

In one assay the test system is Notch signaling. Kind of assay: Notch target genes and NICD in VEGF- or Dll4-stimulated HAECs. The assay is classed as cell-based, human. The protocol: Dll4 and VEGF stimulation of ECs. The ECs to be stimulated were serum-starved overnight and transferred to media containing VEGF (50 ng/mL) or to Dll4-coated plates, and then incubated for indicated time. Dll4 coating was performed as described before (Guarani et al., 2011, Nature 473, 234-238). Lyophilized recombinant Dll4 (R&D Systems) were reconstituted in PBS containing 0.1% bovine serum albumin. The culture dishes were coated with Dll4 (0.5 μg/mL) in 0.1 gelatin solution for 1 hr at 37° C.
Total mRNA was isolated from cells and tissues using TRIzol (Life Technologies). cDNAs were synthesized from 1 μg of total RNA using M-MLV reverse transcriptase (Biorad). qPCR was performed with LightCycler […] SYBR Green I Mastermix (Roche) using the LightCycler 480 System (Roche) according to the manufacturer's instructions. Relative mRNA expression levels were calculated using the ΔΔCt method.
SDS-PAGE and Western blot analysis were performed according to standard procedures and detected with the ECL detection kit (Bio-rad, Australia). […] Quantification of band intensities by densitometry was carried out using ImageJ software.

The test system of assay [1] is C57BL/6J mice. Kind of assay: Treadmill endurance testing. In kind it is in vivo, mouse. The protocol:
Endurance testing. Treadmill tests were carried out on a 1050-RM Exer 3/6 Open Treadmill (Columbus Instruments, OH). Mice were acclimatized to the treadmill system for 3 days prior to endurance testing by running at 10-15 m/min for 20 min. In low intensity endurance testing, the speed started at 5 m/min for 5 min (warm up), and then the speed was increased by 1 every minute until 21 m/min and kept constant. In high intensity endurance testing, the speed started at 13 m/min for 5 min (warm up) at 5° inclination, and then the speed was increased by 1 every minute until 20 m/min and kept constant for 20 min. Every 20 min, the speed was increased by 5 m/min and held constant for 20 min. Mice were considered exhausted when they sat on the shocker plate for more than 10 sec without attempting to reinitiate running.

Assay [2] concerns C57BL/6J mice. Put plainly: Treadmill exercise training with or without NMN, muscle capillaries. In kind it is in vivo, mouse. The protocol: Mice were acclimatized to the treadmill system for 3 days prior to the start of exercise training by running at 10 m/min for 20 min. The animals that were successfully acclimatized were then subjected to running at 15-20 m/min at 5° inclination for 30 minutes once daily for one month. Freshly isolated whole quadriceps and gastrocnemius muscle samples were mounted in OCT compound (Tissue-Tek), placed in an isopentane bath and slowly cooled in liquid nitrogen. Transverse sections at 20 μm-thickness were sectioned on a cryostat (Leica). The sections were fixed in pre-cooled acetone (-20° C.) for 10 min and washed with PBS. […] Slides were washed with PBST and then incubated with anti-rat Alexa Fluor 488-conjugated (Life Technologies) and anti-rabbit Alexa Fluor 594-conjugated (Life Technologies) antibodies diluted to 1:500 in blocking buffer for 2 h at room temperature. Slides were washed again with PBST and mounted with Fluoroshield with DAPI mounting medium (Sigma). Images were acquired using a confocal fluorescence microscope (Nikon A1). Quantification of capillaries and capillary density were performed using ImageJ software. TUNEL staining was performed in muscle sections using in situ BrdU-Red DNA fragmentation (TUNEL) assay kit (Abcam) as per manufacturer's protocol.

In assay [3] the test system is C57BL/6J mice. Put plainly: Muscle capillaries in mice with lentiviral EC-specific SIRT1 knockdown. In kind it is in vivo, mouse. The note with it: 20-month old mice, SIRT1 miRNA #5 lentivirus, NMN 400, NaHS 20, GYY4137 20 mg/kg/day, four weeks. How it is done: Lentiviral particles were concentrated by ultracentrifugation (cite) and viral titer was determined by (cite kit) and injected at 1×10^10 TU/mouse carrying SIRT1 or NT miRNAs to 20-mo old WT C57BL/6J mice (NIA) via retro-orbital injection. Mice received two consecutive injections behind alternate eyes two days apart. 10 days post final injection, mice were assigned to different treatment groups.
Freshly isolated whole quadriceps and gastrocnemius muscle samples were mounted in OCT compound (Tissue-Tek), placed in an isopentane bath and slowly cooled in liquid nitrogen. Transverse sections at 20 μm-thickness were sectioned on a cryostat (Leica). The sections were fixed in pre-cooled acetone (−20° C.) for 10 min and washed with PBS. Slides were then blocked in normal goat serum and 5% Blocking Reagent (PerkinElmer) in PBST (PBS with 0.1% Triton-X) for 1 h at room temperature, and then incubated with anti-CD31 (ab56299, Abcam) and anti-Laminin (L9393, Sigma), GFP (ab6556, Abcam) or SIRT1 (HPA006295, Sigma) antibodies diluted in blocking buffer overnight at 4° C. […] Images were acquired using a confocal fluorescence microscope (Nikon A1). Quantification of capillaries and capillary density were performed using ImageJ software. […]

The mark [4] stands for this setting: 20-month old mice, low intensity treadmill test.

As for `NC(=O)c1ccc[n+]([C@@H]2O[C@H](COP(=O)([O-])O)[C@@H](O)[C@H]2O)c1` [NMN, nicotinamide mononucleotide], the NICD protein levels entry in the assay with Notch signaling (VEGF- or Dll4-stimulated HAECs, NMN 0.5 mM) was “promoted NICD reduction”. The “Notch target gene expression” value in the assay on Notch signaling (after stimulation with VEGF (50 ng/mL) or Dll4, NMN 0.5 mM) is recorded as “significantly decreased”. Moreover, the “distance run further than untreated mice” value with C57BL/6J mice [1] (20-month old mice, high-endurance exercise regimen) came out at 80%. In addition, in the assay on C57BL/6J mice [1] (setting [4]), the “distance run until exhaustion” value came out at 686 meters and the “low-intensity endurance, improvement over the untreated mice” value is recorded as 56%. The “time and distance to exhaustion (endurance)” value with C57BL/6J mice [1] (31-month old mice, low intensity treadmill test) is “significant trend towards increased time and distance to exhaustion”. Besides, the “exercise capacity, including endurance” value with C57BL/6J mice [1] (mice (summary statement)) is reported as “increased exercise capacity”. Also, in the assay on C57BL/6J mice [2] (exercised and NMN-treated mice), the “more capillaries in gastrocnemii than sedentary mice” value is listed as 70%. Also, in the assay with C57BL/6J mice [2] (mice (summary statement)), the “increase in vascular density and exercise capacity in conjunction with exercise versus without exercise” value was “greater”. In addition, the “capillary density or exercise capacity” value in the assay with C57BL/6J mice [2] (young mice kept sedentary, NMN 400 mg/kg/day) is listed as “did not increase”. For the same compound, the “increase in capillary density” value in the assay on C57BL/6J mice [2] (young mice, one month endurance training plus NMN 400 mg/kg/day, versus sedentary) is recorded as 3.2 fold. The “ability to increase vascularization in SIRT1 knockdown mice” value in the assay on C57BL/6J mice [3] is on record as “blocked in the SIRT1 knockdown mice”.
